Assay results as given in the supplement of paper PMC6045584.
± gives the standard deviation of the averaged measurements.

What was measured:
SALINOMYCIN = compound: CC[C@@H](C(=O)[C@@H](C)[C@@H](O)[C@H](C)[C@@H]1O[C@@H]([C@@H](CC)C(=O)O)CC[C@@H]1C)[C@H]1O[C@]2(C=C[C@@H](O)[C@]3(CC[C@@](C)([C@H]4CC[C@](O)(CC)[C@H](C)O4)O3)O2)[C@H](C)C[C@@H]1C [SALINOMYCIN]; assay: area under dose-response curve of surviving fraction (unscaled, Aref=0) (surviving fraction x log10(nM)); higher = more resistant; settings: exposure time: 5 days; dose range 0.5-1000 nM
Procedure, shortened: (§1)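 Each tumour cell line was screened three times in 384-well plates, receiving eight inhibitor concentrations from 0.5 to 1000 nM for five days. CellTiter-Glo luminescence gave viability, normalised to DMSO-only wells. Using the drc R package, surviving fractions were fitted with 3-parameter logistic dose-response curves, and the unscaled activity area over log10 dose (Aref = 0) was taken as the area under the curve.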

FLAVOPIRIDOL [1] = compound: T1, CN1CC[C@H](c2c(O)cc(O)c3c(=O)cc(-c4ccccc4Cl)oc23)[C@H](O)C1 [FLAVOPIRIDOL]; assay: as above; settings: exposure time: 5 days; dose range 0.5-1000 nM
Procedure, shortened: as §1

DECITABINE = compound: Nc1ncn([C@H]2C[C@H](O)[C@@H](CO)O2)c(=O)n1 [DECITABINE]; assay: as above; settings: exposure time: 5 days; dose range 0.5-1000 nM
Procedure, shortened: as §1

17-AAG = compound: C=CCNC1=C2C[C@@H](C)C[C@H](OC)[C@H](O)[C@@H](C)/C=C(\C)[C@H](OC(N)=O)[C@@H](OC)/C=C\C=C(/C)C(=O)NC(=CC1=O)C2=O [17-AAG]; assay: as above; settings: exposure time: 5 days; dose range 0.5-1000 nM
Procedure, shortened: as §1

NUTLIN3 = compound: COc1ccc(C2=N[C@@H](c3ccc(Cl)cc3)[C@@H](c3ccc(Cl)cc3)N2C(=O)N2CCNC(=O)C2)c(OC(C)C)c1 [NUTLIN3]; assay: as above; settings: exposure time: 5 days; dose range 0.5-1000 nM
Procedure, shortened: as §1

2-METHOXYESTRADIOL = compound: COc1cc2c(cc1O)CC[C@@H]1[C@@H]2CC[C@]2(C)[C@@H](O)CC[C@@H]12 [2-METHOXYESTRADIOL]; assay: as above; settings: exposure time: 5 days; dose range 0.5-1000 nM
Procedure, shortened: as §1

LAPATINIB = compound: CS(=O)(=O)CCNCc1ccc(-c2ccc3ncnc(Nc4ccc(OCc5cccc(F)c5)c(Cl)c4)c3c2)o1 [LAPATINIB]; assay: as above; settings: exposure time: 5 days; dose range 0.5-1000 nM
Procedure, shortened: as §1

ABT-737 = compound: CN(C)CC[C@H](CSc1ccccc1)Nc1ccc(S(=O)(=O)NC(=O)c2ccc(N3CCN(Cc4ccccc4-c4ccc(Cl)cc4)CC3)cc2)cc1[N+](=O)[O-] [ABT-737]; assay: as above; settings: exposure time: 5 days; dose range 0.5-1000 nM
Procedure, shortened: as §1

[2] = compound: CCN(CC)CCCCNc1ncc2cc(-c3cc(OC)cc(OC)c3)c(NC(=O)NC(C)(C)C)nc2n1; assay: as above; settings: exposure time: 5 days; dose range 0.5-1000 nM
Procedure, shortened: as §1

VISMODEGIB = compound: CS(=O)(=O)c1ccc(C(=O)Nc2ccc(Cl)c(-c3ccccn3)c2)c(Cl)c1 [VISMODEGIB]; assay: as above; settings: exposure time: 5 days; dose range 0.5-1000 nM
Procedure, shortened: as §1

FLUOROURACIL = compound: O=c1[nH]cc(F)c(=O)[nH]1 [FLUOROURACIL]; assay: as above; settings: exposure time: 5 days; dose range 0.5-1000 nM
Procedure, shortened: as §1

DOXORUBICIN = compound: COc1cccc2c1C(=O)c1c(O)c3c(c(O)c1C2=O)C[C@@](O)(C(=O)CO)C[C@@H]3O[C@H]1C[C@H](N)[C@H](O)[C@H](C)O1 [DOXORUBICIN]; assay: as above; settings: exposure time: 5 days; dose range 0.5-1000 nM
Procedure, shortened: as §1

FLAVOPIRIDOL [3] = compound: T1, FLAVOPIRIDOL; assay: surviving fraction relative to DMSO-only wells; higher = less growth inhibition; settings: exposure time: 5 days
Procedure, shortened: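 Inhibitors were tested at 0.5, 1, 5, 10, 50, 100, 500 and 1000 nM, applied continuously for five days beginning 24 hours after log-phase tumour cells were seeded at 250–500 per well in 384-well plates. CellTiter-Glo luminescence served as the viability measure, expressed as surviving fraction against the median of DMSO-only wells. Each line, screened three times, was kept only with replicate Pearson r >0.7 and median Z' >0.3.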

Test System	area under dose-response curve (SALINOMYCIN)	area under dose-response curve (FLAVOPIRIDOL [1])	area under dose-response curve (DECITABINE)	area under dose-response curve (17-AAG)	area under dose-response curve (NUTLIN3)	area under dose-response curve (2-METHOXYESTRADIOL)	area under dose-response curve (LAPATINIB)	area under dose-response curve (ABT-737)	area under dose-response curve [2]	area under dose-response curve (VISMODEGIB)	area under dose-response curve (FLUOROURACIL)	area under dose-response curve (DOXORUBICIN)	surviving fraction (FLAVOPIRIDOL [3]; 0.5 nM)	surviving fraction (FLAVOPIRIDOL [3]; 1 nM)	surviving fraction (FLAVOPIRIDOL [3]; 5 nM)	surviving fraction (FLAVOPIRIDOL [3]; 10 nM)	surviving fraction (FLAVOPIRIDOL [3]; 50 nM)	surviving fraction (FLAVOPIRIDOL [3]; 100 nM)	surviving fraction (FLAVOPIRIDOL [3]; 500 nM)	surviving fraction (FLAVOPIRIDOL [3]; 1000 nM)
DU4475 BREAST	2.43	1.69	1.99	1.26	3.2	2.52	3.33	2.54	2.52	3.21	3.34	0.979	1.05 ± 0.1	1.08 ± 0.12	0.83 ± 0.07	0.914 ± 0.16	0.162 ± 0.021	0.0273 ± 0.0021	0.025 ± 0.0027	0.0267 ± 0.0021
HCC1806 BREAST	2.77	2.06	1.27	0.894	3.55	3.46	3.15	3.72	3.58	3.23	3.09	1.3	0.833 ± 0.14	0.959 ± 0.059	1.03 ± 0.08	1.06 ± 0.062	0.586 ± 0.038	0.093 ± 0.0078	0.0207 ± 0.00058	0.0217 ± 0.00058
HCC1954 BREAST	2.46	1.99	4.03	0.46	3.64	2.85	2.76	3.03	3.28	2.26	2.96	1.78	1.16 ± 0.0025	1.12 ± 0.063	1.49 ± 0.18	1.12 ± 0.23	0.361 ± 0.1	0.0465 ± 0.0057	0.0345 ± 0.0014	0.0318 ± 0.0039
HELA CERVIX	3.17	2.54	3.41	2.37	3.38	3.11	3.7	3.64	3.33	3.49	3.55	1.69	0.987 ± 0.041	0.962 ± 0.045	1.03 ± 0.086	0.936 ± 0.018	1.16 ± 0.053	0.691 ± 0.027	0.0347 ± 0.001	0.0268 ± 0.00029
HOSMNG BONE	3.21	2.35	3.51	2.42	3.48	3.07	3.02	3.05	3.33	3.19	3.41	2.25	0.977 ± 0.05	0.991 ± 0.049	1 ± 0.011	0.981 ± 0.024	1.01 ± 0.079	0.498 ± 0.021	0.059 ± 0.007	0.0577 ± 0.0065
HSSYII SYNOVIAL	2.22	2.06	2.67	2.27	2.98	2.57	3.2	2.95	2.02	2.83	3.07	0.844	0.999 ± 0.021	0.993 ± 0.025	1.01 ± 0.083	0.907 ± 0.037	0.564 ± 0.034	0.145 ± 0.017	0.0215 ± 0.0005	0.0212 ± 0.00058
HU09 BONE	2.91	2.06	3.33	1.08	3.4	3.01	3.23	3.04	3.06	3.11	3.06	1.38	1.06 ± 0.12	1.08 ± 0.037	1.22 ± 0.14	1.08 ± 0.082	0.638 ± 0.051	0.0337 ± 0.0032	0.024	0.025 ± 0.0017
JIMT1 BREAST	2.96	2.19	2.86	1.58	3.38	3.13	3.27	3.44	3.25	3	3.03	2.21	1 ± 0.012	1.01 ± 0.033	1.05 ± 0.047	1.02 ± 0.035	0.809 ± 0.019	0.2 ± 0.029	0.0467 ± 0.0053	0.0375 ± 0.0027
KPD BONE	2.62	2.05	2.08	1.75	3.29	3.16	3.44	3.2	3.24	3.27	3.27	1.78	0.881 ± 0.31	1.01 ± 0.074	1.08 ± 0.048	0.997 ± 0.03	0.525 ± 0.035	0.101 ± 0.015	0.031 ± 0.0017	0.0277 ± 0.006
LM7 BONE	3.08	2.3	3.06	1.46	3.39	3.02	3.39	3.48	3.22	3.28	2.96	1.78	1.06 ± 0.022	1.08 ± 0.096	1.15 ± 0.11	1.1 ± 0.091	0.824 ± 0.031	0.446 ± 0.016	0.0593 ± 0.0038	0.0543 ± 0.0029
MCF7 BREAST	2.78	2.18	2.83	1.92	2.87	2.89	3.11	3.27	2.89	2.99	2.99	1.99	0.982 ± 0.083	0.973 ± 0.031	0.979 ± 0.032	0.865 ± 0.031	0.816 ± 0.038	0.167 ± 0.011	0.163 ± 0.024	0.157 ± 0.0056
